Data on 5 compounds can be found in patent publication US20240398841A1, “BLADDER PERFUSION PHARMACEUTICAL COMPOSITION, PREPARATION METHOD THEREFOR AND APPLICATION THEREOF” (priority 2020, published 2024).

Data set [1] deals with MB49 bladder cancer in situ. Nature of the data set: Doxorubicin (ADM)/R848 mixed lyophilized powder in bladder perfusion treatment of bladder tumor, tumor mass (Example G3). The format is in vivo, mice. The following applies: after two bladder perfusions; compound formulation with hydroxypropyl methylcellulose as penetration enhancer. The method, then:
Example G3: Application of doxorubicin (ADM) used in combination with resiquimod (R848) in the treatment of bladder tumor.
The in-situ models of bladder cancer in mice were established by the same method as in Example G1, the mixed lyophilized powder formulation of doxorubicin and […] was prepared for later use, and the mice were randomly divided into groups (Blank: perfusion of 5% glucose solution: ADM: perfusion of the […] solution dissolved in normal saline: R848: perfusion of the resiquimod suspension dispersed in 5% glucose solution: ADM+R848: perfusion of the mixed lyophilized powder formulation of […] and resiquimod dissolved in 5% glucose solution), wherein hydroxypropyl methylcellulose was added as a penetration enhancer component before the compound formulation was used for bladder perfusion treatment. After two times of the bladder perfusion in each group, the bladder cancer in the mice was obtained by dissection, and the tumor mass was recorded.

The conditions of data set [2]: 1-9 days, two perfusions; EPI 60 μg, R837 360 μg; compared with blank group.
Protocol: Six mice in each of the four groups were perfused with the same dose of blank ultrapure water (ddH2O), R837 (360 μg), EPI (60 μg) and EPI (60 μg)+R837 (360 μg) for 1 hour, once a week, twice, and the body weight was recorded every other day. […] Next, we used a similar method to evaluate whether there was a usage range for the attenuation effect when EPI and R837 were used in combination in a mass ratio (1:10). Six mice in each of the four groups were perfused with the same dose of blank ultrapure water (ddH2O), R837 (600 μg), EPI (60 μg) and EPI (60 μg)+R837 (600 μg) for 1 hour, and the body weights was recorded every other day.
The subject of data set [3] is bladder in situ tumor (fLuc-MB49 cells). The data set can be described thus: Combined perfusion of EPI and R837 hydrochloride in different ratios for bladder in situ tumor, fluorescence imaging and survival (Example B4). The format is in vivo, mice. The following applies: for Survival rate: 14th day.
Data set [4] is described as follows: General formulation study of simple mixtures of epirubicin and imiquimod (stability, solubility versus pH). It counts as physicochemical.
Data set [5] concerns bladder in situ tumor (fLuc-MB49 cells). The following applies: mouse, in vivo.
The subject of data set [6] is MB49 bladder cancer in situ. Nature of the data set: Pirarubicin (THP)/R837 mixed lyophilized powder in bladder perfusion treatment of bladder cancer, tumor mass (Example G2). The format is in vivo, mice. The note with it: after two bladder perfusions, from tumor mass.
Protocol: Example G2: Application of pirarubicin (THP) used in combination with R837 in the treatment of bladder cancer.
The mice were randomly divided into the following groups:
THP: perfusion of the pirarubicin solution dissolved in 5% glucose solution;
After two times of bladder perfusion treatment, the bladder cancer in the mice was obtained by dissection, and the tumor mass was recorded. […] The Guinness formula q=E(A+B)/(EA+EB−EA*EB) is used to calculate the drug synergy, wherein E(A+B) is the tumor inhibition rate in the compound formulation treatment group, and EA and EB are the tumor inhibition rates when the two components are used respectively.
For data set [7], the system named is bladder cancer. The following applies: TMX-101 gel formulation containing R837, bladder perfusion; cited from earlier work.
Data set [8] deals with bladder in situ tumor (fLuc-MB49 cells). The data set can be described thus: Combined perfusion of THP and R837 hydrochloride for bladder in situ tumor, in vivo fluorescence imaging and survival (Example B2). The following applies: until 35 days. Further details: species or system mice.
Where [9] appears, read: Day 0 (before the first perfusion).

“And” between values parts separate entries of the source, which are not always exact repeats. Equal entries are not always repeated. Structures can show the parent of a compound that is named as a salt.

Turning to `COc1cccc2c1C(=O)c1c(O)c3c(c(O)c1C2=O)C[C@@](O)(C(=O)CO)C[C@@H]3O[C@H]1C[C@H](N)[C@H](O)[C@H](C)O1` [DOX, doxorubicin hydrochloride], in data set [1], the tumor inhibition rate turned out to be 8.6%.

For `COc1cccc2c1C(=O)c1c(O)c3c(c(O)c1C2=O)C[C@@](O)(C(=O)CO)C[C@@H]3O[C@H]1C[C@H](N)[C@@H](O)[C@H](C)O1` [EPI, epirubicin hydrochloride], the “body weights of the mice” value in data set [2] is on record as “significantly lower”. For the same compound, the Survival rate in data set [3] is listed as 67%. Also, the “Mean fluorescence intensity of bladder in situ tumor tissue, group Mean” value is 1.957 10^5 in data set [3] (setting [9]), 3.893 10^5 in data set [3] (Day 7) and 10.8 10^5 in data set [3] (Day 14). For the same compound, the “Mean fluorescence intensity of bladder in situ tumor tissue (single mice)” value in data set [3] (Day 14, listed as B4-3, hydrochloride) was 12.8 10^5 and 10.9 10^5 and 8.7 10^5.

Turning to `CC(C)Cn1cnc2c(N)nc3ccccc3c21` [Sample R837, imiquimod], in data set [4], the “pH above which imiquimod precipitates from the solution” value is more than 5.0. In addition, the “tumor fluorescence intensity / tumor inhibition effect” value in data set [5] is recorded as “no significant tumor inhibition effect”. In data set [6], this compound yielded a tumor inhibition rate of 38.33%. For the same compound, the Survival rate in data set [3] came out at 100%. Further, the “Mean fluorescence intensity of bladder in situ tumor tissue, group Mean” value is reported as 1.877 10^5 in data set [3] (setting [9]), 5.922 10^5 in data set [3] (Day 7) and 9.287 10^5 in data set [3] (Day 14). Also, the “Mean fluorescence intensity of bladder in situ tumor tissue (single mice)” value in data set [3] (Day 7, listed as B4-2) was 6.37 10^5 and 5.49 10^5 and 5.35 10^5 and 6.92 10^5 and 6.05 10^5; in data set [3] (Day 14, listed as B4-2), 7.97 10^5 and 10.2 10^5 and 9.04 10^5 and 12.7 10^5 and 7.53 10^5 and 8.28 10^5. For the same compound, in data set [7], the “safety in clinical trial” value was “good safety”.

With `CCOCc1nc2c(N)nc3ccccc3c2n1CC(C)(C)O` [Sample R848, resiquimod], in data set [1], the tumor inhibition rate came out at 21.8%.

On to `COc1cccc2c1C(=O)c1c(O)c3c(c(O)c1C2=O)C[C@@](O)(C(=O)CO)C[C@@H]3O[C@H]1C[C@H](N)[C@H](O[C@@H]2CCCCO2)[C@H](C)O1` [THP, pirarubicin hydrochloride], for which the tumor inhibition rate in data set [6] was found to be 28.23%. Further, the Survival rate in data set [8] turned out to be 60%.
